Assay results taken from patent US9861703B2 (Jinan Platinum Pharmatech Co. Ltd., priority 2013, dated 2018).

Key:
[1] = system: human leukemia cell line K562; test: MTT proliferation inhibition, K562; format: cell-based; details: 48 h
Procedure: (§1) Human leukemia cell line K562, clear-cell ovarian carcinoma cell line ES-2, human prostate cancer cell line PC-3, human breast cancer cell line MCF-7, cell line Hela, human liver cancer cell line H7402 and human ovarian cancer cell line 3-AO were transferred into a culture flask and were cultured in a medium at 37° C. in a 5% CO2 and saturation humidity. One bottle of cells in logarithmic growth phase was picked out and was blew and beaten to be uniform with a pipette, then took some cell suspension solution to prepare blood counting plate smear to count cells under inverted microscope, and then adjusted the cell number to be 1×10^5/mL by adding some culture medium. Cells were seeded on a 96-well plate on which also drug tests performed. Blank control group, negative control group, positive control group and drug test group were established on the plate while the surrounding wells of the plate were not used (but filled with sterile PBS), wherein the blank control groups were prepared by addition of culture medium 150 μL per well, the negative control groups were prepared by addition of cell suspension solution 100 μL per well and culture medium 50 μL per well, the positive control groups were prepared by addition of cell suspension solution 100 μL per well and positive control drug solution 50 μL per well, the drug test groups were prepared by addition of cell suspension solution 100 μL per well and test compound solution 50 μL per well, and there were 5 different concentrations of drug in the positive control group and the drug test group respectively: 0.01, 0.1, 1, 10, 100 μmol·L^−1, each concentration was established with 3 parallel wells. After the drug was added, the 96-well plate was incubated for 48 h at 37° C. in a CO2 incubator of 5% CO2 and saturation humidity. Upon completion of the incubation, 20 μL MTT solution (concentration was 5 mg/mL) was added to each well and incubated for an additional 4 h, and after the 96-well plate was centrifuged at 2000 rpm for 30 min, medium of each well was suck out carefully and removed and 100 μL DMSO was added instead, followed by vibrating on a tablet shaker for 15 min to re-dissolve formazan crystals completely. OD value of each well was measured at 570 nm wavelength using an enzyme-linked immunosorbent assay reader to calculate cellular proliferation inhibitory ratio of each drug in different concentrations. And half-inhibitory concentration (IC50) was calculated using statistical software SPSS 16.0, wherein the cellular proliferation inhibitory ratio can be calculated as following equation: […]

liver cancer H22 = test: Inhibition assay of oral administration against liver cancer H22 (Example 33); format: in vivo, Kunming mice; details: oral gavage, 100 mg/kg/d, sacrificed after 13 days
Procedure: (1) the negative control: PBS; (2) Xeloda group: 100 mg/kg/d; (3) TFU group: 70 mg/kg/d; (4) BC-01 group: 100 mg/kg/d.
[formula] [formula] [formula] 2.2: Inhibition Assay of Intravenous Administration Against Liver Cancer H22

[2] = system: clear-cell ovarian carcinoma cell line ES-2; test: MTT proliferation inhibition, ES-2; format: cell-based; details: for EC50: 48 h
Procedure: as §1

cell line Hela = test: MTT proliferation inhibition, Hela; format: cell-based
Procedure: as §1

[3] = system: human ovarian cancer cell line 3-AO; test: MTT proliferation inhibition, 3-AO; format: cell-based; details: 48 h
Procedure: as §1

H22 tumor cells = test: Activities of compounds in H22 tumor cells bearing Kunming mice models (Example 34); details: for anti-tumor growth activity: FIGS. 11-14; for Number of mice alive: 8 mice; for Tumor growth inhibition (%) / Tumor weight: after two cycles
Procedure: The ascites was extracted from H22 tumour bearing mice with well growth, followed by adding sterile PBS to dilute the ascites to a concentration of 8.5×10^7 cells/mL. 100 uL of the cells solution was suck up by a 1 mL sterile injector to inoculate into right oxter of mice. After 3 days, the mice were weighted and randomized to several groups (almost 8 mice per group, and a bit more in control group). These mice were administrated a predetermined dosage by intravenous or oral gavage with two days off when having administrated for 5 days until two cycles one of which had 7 days. The body weight of mouse was recorded at the beginning and ending of every cycle,
After being administrated for two cycles, the mice were weighted and recorded, then sacrificed by cervical dislocation to get lung, liver and spleen weighted respectively.
Overall difference was calculated by the function of one-way analysis of variance (One-Way ANOVA) in Origin 7.5 software; and t-test was used for pair-comparison between drug administrated group and blank group, and the inhibitory ratio of drug in each group was calculated based on the following equation: inhibitory ratio (100%)=(mean tumor weight of control group−mean tumor weight of drug administrated group)/mean tumor weight of control group×100.

[4] = system: human breast cancer cell line MCF-7; test: MTT proliferation inhibition, MCF-7; format: cell-based; details: 48 h
Procedure: as §1

[5] = intravenous injection, 50 mg/kg/d (0.1 mmol/kg/d)
[6] = oral gavage, 120 mg/kg/d ([…]) per dosage table, group printed *BC-01(50)
[7] = intravenous injection, 55 mg/kg/d (0.1 mmol/kg/d) (by order of dosage table)
[8] = intravenous injection, 79 mg/kg/d (0.15 mmol/kg/d) (by order of dosage table)
[9] = oral gavage, 130 mg/kg/d ([…]) per dosage table, group printed *BC-02(70)

Compound: CC(C)C[C@H](NC(=O)[C@@H](O)[C@H](N)Cc1ccccc1)C(=O)OCn1cc(F)c(=O)[nH]c1=O.Cl [BC-01, (S)-(5-fluoro-2,4-dioxo-3,4-dihydropyrimidinyl-1(2H))methyl-2-((2S,3R)-3-(amino)-2-hydroxy-4-phenylbutyryl)-4-methylpentanoate hydrochloride]
- EC50 [1]: 5.82 µM
- Tumor weight (liver cancer H22; two cycles (5 days on, 2 off)): 0.26 g
- inhibitory ratio (%) (liver cancer H22; two cycles): 66.67%
- EC50 [2]: 2.53 µM
- proliferation inhibition activity against Hela compared with ubenimex and 5-FU (cell line Hela): much higher proliferation inhibition activity
- EC50 (cell line Hela; 48 h): 0.73 µM
- EC50 [3]: 2.59 µM
- anti-tumor growth activity (H22 tumor cells): excellent anti-tumor growth activity
- Number of mice alive (H22 tumor cells; intravenous injection, 50 mg/kg/d (0.1 mmol/kg/d), two cycles): 8
- Tumor growth inhibition (%) (H22 tumor cells; [5]): 84.38%
- Tumor weight (H22 tumor cells; [5]): 0.09 ± 0.14 g
- Body weight(g) Beginning (H22 tumor cells; [5]): 31.52 ± 3.63 g
- Body weight(g) Ending (H22 tumor cells; [5]): 31.78 ± 5.76 g
- Number of mice alive (H22 tumor cells; [6]): 7
- Tumor growth inhibition (%) (H22 tumor cells; [6]): 79.52%
- Tumor weight (H22 tumor cells; [6]): 0.12 ± 0.16 g
- Body weight(g) Beginning (H22 tumor cells; [6]): 27.87 ± 2.55 g
- Body weight(g) Ending (H22 tumor cells; [6]): 29.50 ± 2.15 g
- EC50 [4]: 1.35 µM

Compound: CC(C)C[C@H](NC(=O)[C@@H](O)[C@H](N)Cc1ccccc1)C(=O)NCC(=O)OCn1cc(F)c(=O)[nH]c1=O.Cl [BC-02, (5-fluoro-2,4-dioxo-3,4-dihydropyrimidinyl-1(2H))methyl-2-((S)-2-((2S,3R)-3-amino-2-hydroxy-4-phenylbutanamido)-4-methylpentanamido)acetate hydrochloride]
- proliferation inhibition activity against ES-2 [2]: great proliferation inhibition activity
- EC50 [2]: 1.34 µM
- tumor appearance until the end of the experiment (H22 tumor cells; 0.15 mmol/kg/d, intravenous): no tumor appeared
- anti-tumor growth activity (H22 tumor cells): excellent anti-tumor growth activity
- Number of mice alive (H22 tumor cells; [7]): 7
- Tumor growth inhibition (%) (H22 tumor cells; [7]): 89.52%
- Tumor weight (H22 tumor cells; [7]): 0.06 ± 0.11 g
- Body weight(g) Beginning (H22 tumor cells; [7]): 25.67 ± 2.62 g
- Body weight(g) Ending (H22 tumor cells; [7]): 28.35 ± 3.71 g
- Number of mice alive (H22 tumor cells; [8]): 7
- Tumor growth inhibition (%) (H22 tumor cells; [8]): 100%
- Tumor weight (H22 tumor cells; [8]): 0.0 ± 0.0 g
- Body weight(g) Beginning (H22 tumor cells; [8]): 30.32 ± 4.42 g
- Body weight(g) Ending (H22 tumor cells; [8]): 31.13 ± 3.55 g
- Number of mice alive (H22 tumor cells; [9]): 7
- Tumor growth inhibition (%) (H22 tumor cells; [9]): 89.76%
- Tumor weight (H22 tumor cells; [9]): 0.06 ± 0.11 g
- Body weight(g) Beginning (H22 tumor cells; [9]): 27.98 ± 3.73 g
- Body weight(g) Ending (H22 tumor cells; [9]): 27.49 ± 4.94 g
